Measured values published in patent US20110300197A1, “FOOD PRODUCT” (Mars, Incorporation, priority 2008, published 2011).

Assays:
Type in all cases: cell-based, dog
[1] = test system: biofilms representative of canine dental plaque; experiment: Canine plate biofilm assay (PBA): biomass quantification (crystal violet assay); details: 48 hours, extracts at 500 μg/ml unless otherwise stated, OD595 vs no active control
Protocol: (§1) The assay requires fresh supragingival canine dental plaque and saliva for inoculation. The inoculum consists of pooled dental plaque and unfiltered saliva sampled from a group of 14 dogs, varying in age, breed and oral health status.
(§2) The plaque and saliva were resuspended in artificial saliva to form the inoculum of approximately 15% plaque and 30% saliva.
(§3) The plate biofilm assay (PBA) utilises a 24 well plate format in which biofilms, representative of canine dental plaque, are grown on hydroxyapatite (HA) discs. Prior to being introduced to the 24 well assay plate, each HA disc is preconditioned for 2 hours in a solution of 50% filter sterilised canine saliva in artificial canine saliva. The preconditioning step stimulates the formation of a salivary pellicle on the HA disc surface. […] Each HA disc, with the exception of those being used for biomass quantification, is placed into 500 μl PBS and vortex mixed for 30 seconds to remove biofilm growth from the disc into solution. […] Biofilm-covered HA discs that are being used for biomass quantification are removed from the 24 well assay plate and used directly in the crystal violet assay.
The total amount of biofilm grown on the HA discs was quantified using the crystal violet staining method. Biomass was represented as being directly proportional to the OD reading at 595 nm (0D595) of the samples compared to controls. […]

[2] = test system: trypsin-like protease activity; experiment: Canine plate biofilm assay (PBA): trypsin-like protease activity (liquid BAPNA assay); details: 48 hours, extracts at 500 μg/ml unless otherwise stated, vs no active control
Protocol: as §1, §2, §3
Trypsin-like protease activity was measured using the liquid BAPNA assay, a colourimetric assay in which the amount of trypsin present in a sample is directly proportional to the intensity of the colour developed. […]

Aerobes = experiment: Canine plate biofilm assay (PBA): bacterial viable counts, aerobes; details: 48 hours, extracts at 500 μg/ml unless otherwise stated, vs no active control
Protocol: as §1, §2
as §3, with “saliva.” for “saliva. The preconditioning step stimulates the formation of a salivary pellicle on the HA disc surface.”
(§4) Viable numbers of bacteria were quantified using Columbia blood agar plates supplemented with haemin and menadione. Aerobes were counted after incubation for 2 days and anaerobes, including black pigmenting colonies (BPC), were counted after incubation at appropriate conditions for 9 days. […]

anaerobes = experiment: Canine plate biofilm assay (PBA): bacterial viable counts, anaerobes; details: 48 hours, extracts at 500 μg/ml unless otherwise stated, vs no active control
Protocol: as §1, §2
as §3, with “saliva.” for “saliva. The preconditioning step stimulates the formation of a salivary pellicle on the HA disc surface.”
as §4

[3] = test system: black pigmenting colonies (BPC); experiment: Canine plate biofilm assay (PBA): bacterial viable counts, black pigmenting colonies; details: 48 hours, extracts at 500 μg/ml unless otherwise stated, vs no active control
Protocol: as §1, §2
as §3, with “saliva.” for “saliva. The preconditioning step stimulates the formation of a salivary pellicle on the HA disc surface.”
as §4

Compound: [H]/N=C(\N/C(=N/[H])NCCCCCCNC(=N)NC(=N)Nc1ccc(Cl)cc1)Nc1ccc(Cl)cc1 [Chlorhexidine, chlorhexidine]
- Biomass (% reduction) [1]: 94.40%
- Protease (% reduction) [2]: 95.76%
- Aerobe (Log 10 reduction) (Aerobes): 2.87 Log 10
- Anaerobe (Log 10 reduction) (anaerobes): 2.48 Log 10
- BPC (Log 10 reduction) [3]: 2.74 Log 10
